Source: patent publication US20080207600A1, “Pharmaceutical Combination for the Treatment of Cns Functional Disorders” (priority 2004, published 2008)
Marks after values point to notes of the source that are not given here.

System: spontaneous motion activity of rats
Assay: Depression of spontaneous motion activity (SMA) in "open field" test
Format: in vivo
Settings: for Spontaneous activity (total values) b) after haloperidol administration: rats, i/p., open field 2 minutes, 10 minutes after administration, M±σ
Description: The presently-known clinical methods of haloperidol administration are: intravenous, intramuscular and oral. […] In theory, it is possible to improve the efficacy of the medicine, to reduce the single-administration dosage (through elimination of the effect of “first passage” through the liver) and to alleviate adverse somatic side effects.
The Applicant used pharmacological combination of intraperitoneally (i/p.) administered haloperidol with nasally applied CO-generating composition.
The experiments were performed on 24 puberty-age white rats (of no particular breed), body mass: 100-120 grams. Depression in SMA of the animals, as produced by i/p. drug administration, was compared with SMA depression produced by i/p. administration combined with nasal administration of CO-generating composition on the basis of a hem-oxygenase enzyme form. SMA of each animal was evaluated as total sum of values obtained within 2 minutes of “open field” test (in terms of the number of poles/supports, number of ring exercises and cleanings), prior to drug administration, and 10 minutes after drug administration.
The experimental animals were subdivided into 4 groups:
Group No. 1: controls (6 animals), no exposure;
Group No. 2: haloperidol (7 animals), i/p., 0.2 mg/kg;
Group No. 3: haloperidol (5 animals), i/p., 0.05 mg/kg;
Group No. 4: haloperidol (6 animals), i/p., 0.05 mg/kg, in pharmacological combination with CO-generating composition.
Haloperidol was administered by i/p. route within the physiological solution; CO-generating composition was administered nasally.

[1] = preliminary studies, intraperitoneal, 0.2 mg/kg

## O=C(CCCN1CCC(O)(c2ccc(Cl)cc2)CC1)c1ccc(F)cc1 [haloperidol]
[1]
  Persistence of haloperidol-dependant depression in motive responses: 53.5 ± 7.7 min
  Time to development of haloperidol-dependant depression in motive responses: 4.2 ± 1.8 min
0.05 mg/kg
  Spontaneous activity (total values) b) after haloperidol administration: 24 ± 3**^)
0.2 mg/kg
  Spontaneous activity (total values) b) after haloperidol administration: 3 ± 1*^)
